Patent publication US10519134B2, “Pyrazole compounds and methods of making and using same” (Lundbeck La Jolla Research Center, Inc., priority 2015, dated 2019)

Experiments:
[1] = biological target: T1, MAGL (Mus musculus, UniProt O35678); assay: In vitro competitive activity-based protein profiling (mouse), MAGL gel band; assay type: biochemical; conditions: for inhibition at 1 µM: read-out: MAGL % inh. 1 μM; for IC50: mouse
T1 construct: Proteomes (mouse brain membrane fraction or cell lysates); from tissue; host or cells: mouse brain membrane fraction (or cell lysates)
T1 sequence (O35678 1-303): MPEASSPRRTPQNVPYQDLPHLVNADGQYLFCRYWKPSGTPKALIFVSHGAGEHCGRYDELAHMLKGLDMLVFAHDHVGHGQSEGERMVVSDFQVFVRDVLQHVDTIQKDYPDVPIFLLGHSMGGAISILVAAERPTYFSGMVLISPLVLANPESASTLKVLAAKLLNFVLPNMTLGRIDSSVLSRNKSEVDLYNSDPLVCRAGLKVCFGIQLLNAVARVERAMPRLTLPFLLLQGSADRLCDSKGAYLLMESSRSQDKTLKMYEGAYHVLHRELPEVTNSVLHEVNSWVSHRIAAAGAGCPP
Summary of the method: (§1)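 Residual enzyme activity is taken from in-gel fluorescence after SDS-PAGE. Proteome from mouse brain membranes or cell lysates (total protein 1.0 mg/mL) sees inhibitor for 30 min, then FP-Rh or HT-01 probe (50 μM DMSO stock) for 30 min, both steps at 37 °C.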

[2] = biological target: T2, FAAH (Mus musculus, UniProt O08914); assay: In vitro competitive activity-based protein profiling (mouse), FAAH gel band; assay type: biochemical; conditions: for inhibition at 1 µM: read-out: FAAH % inh. 1 μM; for IC50: mouse
T2 construct: Proteomes (mouse brain membrane fraction or cell lysates); from tissue; host or cells: mouse brain membrane fraction (or cell lysates)
T2 sequence (O08914 1-579): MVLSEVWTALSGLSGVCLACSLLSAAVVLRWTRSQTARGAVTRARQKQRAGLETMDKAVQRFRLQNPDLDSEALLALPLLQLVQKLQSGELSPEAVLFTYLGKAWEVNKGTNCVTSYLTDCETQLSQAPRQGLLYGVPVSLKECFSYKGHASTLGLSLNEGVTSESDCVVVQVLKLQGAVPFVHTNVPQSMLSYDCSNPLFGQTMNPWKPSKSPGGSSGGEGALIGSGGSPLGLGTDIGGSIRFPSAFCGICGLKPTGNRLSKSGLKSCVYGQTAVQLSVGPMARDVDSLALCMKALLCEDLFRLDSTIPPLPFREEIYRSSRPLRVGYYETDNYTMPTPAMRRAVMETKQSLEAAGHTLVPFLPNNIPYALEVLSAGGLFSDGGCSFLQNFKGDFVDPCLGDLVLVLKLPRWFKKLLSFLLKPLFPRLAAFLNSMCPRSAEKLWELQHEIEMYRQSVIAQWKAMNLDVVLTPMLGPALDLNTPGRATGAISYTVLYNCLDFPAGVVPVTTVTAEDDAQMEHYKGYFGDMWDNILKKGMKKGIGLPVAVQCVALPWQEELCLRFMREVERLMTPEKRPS
Summary of the method: as §1

Row | inhibition at 1 µM [1] [%] | inhibition at 1 µM [2] [%] | IC50 [1] [nM] | IC50 [2] [nM] | SMILES
1 | ≥ 75 | 0 to 25 |  |  | CS(=O)(=O)Nc1ccn(C(=O)N2CCN(Cc3ccc(-c4ccccc4)cc3OCc3ccccc3)CC2)n1 [Example 183, N-(1-(4-((3-(benzyloxy)-[1,1′-biphenyl]-4-yl)methyl)piperine-1-carbonyl)-1H-pyrazol-3-yl) methanesulfonamide]
2 | 25 to 50 | 0 to 25 |  |  | Cn1ncc2cc(CN3CCN(C(=O)n4ccc(NS(C)(=O)=O)n4)CC3)ccc21 [Example 184, N-(1-(4-((1-methyl-1H-indazol-5-yl)methyl)piperazine-1-carbonyl)-1H-pyrazol-3-yl) methanesulfonamide]
3 | ≥ 75 | 0 to 25 | 1000 to 10000 | 1000 to 10000 | CC(=O)Nc1ccn(C(=O)N2CCC3(CCCN3Cc3ccc4c(ccn4C)c3)CC2)n1 [Example 185, N-(1-(1-((1-methyl-1H-indol-5-yl)methyl)-1,8-diazaspiro[4.5]decane-8-carbonyl)-1H-pyrazol-3-yl)acetamide]
4 | ≥ 75 | 0 to 25 |  |  | CS(=O)(=O)Nc1ccn(C(=O)N2CCN(Cc3cc(N4CCCC4)ccc3C(F)(F)F)CC2)n1 [Example 195, N-(1-(4-(5-(pyrrolidin-1-yl)-2-(trifluoromethyl)benzyl)piperazine-1-carbonyl)-1H-pyrazol-3-yl) methanesulfonamide]
5 | 0 to 25 | 0 to 25 |  |  | CS(=O)(=O)Nc1ccn(C(=O)N2CCN(Cc3ccc(Cl)c(-c4nnn[nH]4)c3)CC2)n1 [Example 214, N-(1-(4-(4-chloro-3-(1H-tetrazol-5-yl)benzyl)piperazine-1-carbonyl)-1H-pyrazol-3-yl) methanesulfonamide]
6 | 25 to 50 | 0 to 25 |  |  | CN1CCC(Oc2cc(CN3CCN(C(=O)n4ccc(NS(C)(=O)=O)n4)CC3)ccc2Cl)CC1 [Example 220, N-(1-(4-(4-chloro-3-((1-methylpiperidin-4-yl)oxy)benzyl)piperazine-1-carbonyl)-1H-pyrazol-3-yl) methanesulfonamide]
7 | ≥ 75 | 0 to 25 | ≤ 100 | 1000 to 10000 | CC(=O)Nc1ccn(C(=O)N2CCN(Cc3ccc(C(F)(F)F)c(-c4nnn[nH]4)c3)CC2)n1 [Example 222, N-(1-(4-(3-(1H-tetrazol-5-yl)-4-(trifluoromethyl)benzyl)piperazine-1-carbonyl)-1H-pyrazol-3-yl)acetamide]
8 | ≥ 75 | 0 to 25 | 1000 to 10000 | 1000 to 10000 | Cc1c(CN2CCCC23CCN(C(=O)n2ccc(NS(C)(=O)=O)n2)CC3)cccc1N1CCCC1 [Example 224, N-(1-(1-(2-methyl-3-(pyrrolidin-1-yl)benzyl)-1,8-diazaspiro[4.5]decane-8-carbonyl)-1H-pyrazol-3-yl) methanesulfonamide]
9 | 0 to 25 | 0 to 25 |  |  | CN1CCN(c2c(Cl)cccc2CN2CCN(C(=O)n3ccc(NS(C)(=O)=O)n3)CC2)CC1 [Example 225, N-(1-(4-(3-chloro-2-(4-methylpiperazin-1-yl)benzyl)piperazine-1-carbonyl)-1H-pyrazol-3-yl) methanesulfonamide]
10 | 0 to 25 | 0 to 25 |  |  | Cc1c(CN2CCCC23CCN(C(=O)n2ccc(NS(C)(=O)=O)n2)CC3)cccc1N1CCOCC1 [Example 226, N-(1-(1-(2-methyl-3-morpholinobenzyl)-1,8-diazaspiro[4.5]decane-8-carbonyl)-1H-pyrazol-3-yl) methanesulfonamide]
11 | 0 to 25 | 0 to 25 |  |  | CCN1CCN(c2cc(C(F)(F)F)ccc2CN2CCCC23CCN(C(=O)n2ccc(NS(C)(=O)=O)n2)CC3)CC1 [Example 238, N-(1-(1-(2-(4-ethylpiperazin-1-yl)-4-(trifluoromethyl)benzyl)-1,8-diazaspiro[4.5]decane-8-carbonyl)-1H-pyrazol-3-yl) methanesulfonamide]
12 | 0 to 25 | 0 to 25 |  |  | CS(=O)(=O)Nc1ccn(C(=O)N2CCC3(CCCN3Cc3ccc(C(F)(F)F)cc3N3CCN(C4CC4)CC3)CC2)n1 [Example 239, N-(1-(1-(2-(4-cyclopropylpiperazin-1-yl)-4-(trifluoromethyl)benzyl)-1,8-diazaspiro[4.5]decane-8-carbonyl)-1H-pyrazol-3-yl) methanesulfonamide]
13 | 50 to 75 | 0 to 25 |  |  | CS(=O)(=O)Nc1ccn(C(=O)N2CCN(Cc3ccc(C(F)(F)F)cc3N3CCN(CC(=O)O)CC3)CC2)n1 [Example 241, 2-(4-(2-((4-(3-(methylsulfonamido)-1H-pyrazole-1-carbonyl)piperazin-1-yl)methyl)-5-(trifluoromethyl)phenyl)piperazin-1-yl)acetic acid]
14 | 0 to 25 | 0 to 25 |  |  | CS(=O)(=O)Nc1ccn(C(=O)N2CCN(Cc3cc(N4CCC(C(=O)O)CC4)cc(C(F)(F)F)c3)CC2)n1 [Example 242, 1-(3-((4-(3-(methylsulfonamido)-1H-pyrazole-1-carbonyl)piperazin-1-yl)methyl)-5-(trifluoromethyl)phenyl)piperidine-4-carboxylic acid]
15 | 0 to 25 | 0 to 25 |  |  | CS(=O)(=O)Nc1ccn(C(=O)N2CCC3(CCCN3Cc3ccc(C(F)(F)F)cc3N3CCC(C(=O)O)CC3)CC2)n1 [Example 243, 1-(2-((8-(3-(methylsulfonamido)-1H-pyrazole-1-carbonyl)-1,8-diazaspiro[4.5]decan-1-yl)methyl)-5-(trifluoromethyl)phenyl)piperidine-4-carboxylic acid]
16 | 0 to 25 | 0 to 25 |  |  | CS(=O)(=O)Nc1ccn(C(=O)N2CCN(Cc3cc(N4CCC(C(=O)O)C4)cc(C(F)(F)F)c3)CC2)n1 (stereo not shown) [Example 244, 1-(3-((4-(3-(methylsulfonamido)-1H-pyrazole-1-carbonyl)piperazin-1-yl)methyl)-5-(trifluoromethyl)phenyl)pyrrolidine-3-carboxylic acid]
17 | 0 to 25 | 0 to 25 |  |  | CS(=O)(=O)Nc1ccn(C(=O)N2CCC3(CCCN3Cc3ccc(C(F)(F)F)cc3N3CCC(C(=O)O)C3)CC2)n1 (stereo not shown) [Example 245, 1-(2-((8-(3-(methylsulfonamido)-1H-pyrazole-1-carbonyl)-1,8-diazaspiro[4.5]decan-1-yl)methyl)-5-(trifluoromethyl)phenyl) pyrrolidine-3-carboxylic acid]
18 | 0 to 25 | 0 to 25 |  |  | CS(=O)(=O)Nc1ccn(C(=O)N2CCC3(CCCN3Cc3cc(N4CCC(C(=O)O)CC4)cc(C(F)(F)F)c3)CC2)n1 [Example 246, 1-(3-((8-(3-(methylsulfonamido)-1H-pyrazole-1-carbonyl)-1,8-diazaspiro[4.5]decan-1-yl)methyl)-5-(trifluoromethyl)phenyl) piperidine-4-carboxylic acid]
19 | 0 to 25 | 0 to 25 |  |  | CS(=O)(=O)Nc1ccn(C(=O)N2CCC3(CCCN3Cc3cc(N4CCC(C(=O)O)C4)cc(C(F)(F)F)c3)CC2)n1 (stereo not shown) [Example 247, 1-(3-((8-(3-(methylsulfonamido)-1H-pyrazole-1-carbonyl)-1,8-diazaspiro[4.5]decan-1-yl)methyl)-5-(trifluoromethyl)phenyl)pyrrolidine-3-carboxylic acid]
20 | 0 to 25 | 0 to 25 |  |  | CS(=O)(=O)Nc1ccn(C(=O)N2CCN(Cc3ccc(Cl)c(N4CCC(C(N)=O)CC4)c3)CC2)n1 [Example 249, 1-(2-chloro-5-((4-(3-(methylsulfonamido)-1H-pyrazole-1-carbonyl)piperazin-1-yl)methyl)phenyl) piperidine-4-carboxamide]
21 | 25 to 50 | 0 to 25 |  |  | CC(=O)N1CCN(c2cc(CN3CCN(C(=O)n4ccc(NS(C)(=O)=O)n4)CC3)cc(C(F)(F)F)c2)CC1 [Example 251, N-(1-(4-(3-(4-acetylpiperazin-1-yl)-5-(trifluoromethyl)benzyl)piperazine-1-carbonyl)-1H-pyrazol-3-yl) methanesulfonamide]
22 | ≥ 75 | 0 to 25 | ≤ 100 | 1000 to 10000 | CS(=O)(=O)Nc1ccn(C(=O)N2CCN(Cc3ccc(C(F)(F)F)cc3N3CCC(O)CC3)CC2)n1 [Example 252, N-(1-(4-(2-(4-hydroxypiperidin-1-yl)-4-(trifluoromethyl)benzyl)piperazine-1-carbonyl)-1H-pyrazol-3-yl) methanesulfonamide]
